# In ChEMBL document CHEMBL3627608, “Crystal structures of human RIP2 kinase catalytic domain complexed with ATP-competitive inhibitors: Foundations for understanding inhibitor selectivity” (Bioorg Med Chem, 2015):
# How the values were obtained:
# [1] = biological target: Macrophage colony-stimulating factor 1 receptor (Homo sapiens) (UniProt P07333); assay: Inhibition of FMS (unknown origin) at 10 uM after 120 mins P33 radiolabeled kinase activity assay
# [2] = biological target: T1, Mitogen-activated protein kinase 13 (Homo sapiens) (UniProt O15264); assay: Inhibition of P38delta (unknown origin) at 10 uM after 120 mins P33 radiolabeled kinase activity assay
# T1 sequence (whole entry): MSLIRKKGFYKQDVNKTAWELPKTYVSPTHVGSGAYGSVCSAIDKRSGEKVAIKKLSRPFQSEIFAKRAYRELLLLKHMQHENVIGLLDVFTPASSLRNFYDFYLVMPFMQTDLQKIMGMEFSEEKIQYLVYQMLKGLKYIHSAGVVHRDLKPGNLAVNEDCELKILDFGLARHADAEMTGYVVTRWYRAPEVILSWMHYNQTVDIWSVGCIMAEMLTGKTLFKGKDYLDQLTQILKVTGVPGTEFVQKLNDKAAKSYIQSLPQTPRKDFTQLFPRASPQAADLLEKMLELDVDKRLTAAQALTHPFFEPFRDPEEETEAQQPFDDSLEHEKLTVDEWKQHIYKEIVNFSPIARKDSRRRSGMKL
# [3] = biological target: Ribosomal protein S6 kinase alpha-3 (Homo sapiens) (UniProt P51812); assay: Inhibition of RSK2 (unknown origin) at 10 uM after 120 mins P33 radiolabeled kinase activity assay
# [4] = biological target: T2, Non-receptor tyrosine-protein kinase TNK1 (Homo sapiens) (UniProt Q13470); assay: Inhibition of TNK1 (unknown origin) at 10 uM after 120 mins P33 radiolabeled kinase activity assay
# T2 sequence (whole entry): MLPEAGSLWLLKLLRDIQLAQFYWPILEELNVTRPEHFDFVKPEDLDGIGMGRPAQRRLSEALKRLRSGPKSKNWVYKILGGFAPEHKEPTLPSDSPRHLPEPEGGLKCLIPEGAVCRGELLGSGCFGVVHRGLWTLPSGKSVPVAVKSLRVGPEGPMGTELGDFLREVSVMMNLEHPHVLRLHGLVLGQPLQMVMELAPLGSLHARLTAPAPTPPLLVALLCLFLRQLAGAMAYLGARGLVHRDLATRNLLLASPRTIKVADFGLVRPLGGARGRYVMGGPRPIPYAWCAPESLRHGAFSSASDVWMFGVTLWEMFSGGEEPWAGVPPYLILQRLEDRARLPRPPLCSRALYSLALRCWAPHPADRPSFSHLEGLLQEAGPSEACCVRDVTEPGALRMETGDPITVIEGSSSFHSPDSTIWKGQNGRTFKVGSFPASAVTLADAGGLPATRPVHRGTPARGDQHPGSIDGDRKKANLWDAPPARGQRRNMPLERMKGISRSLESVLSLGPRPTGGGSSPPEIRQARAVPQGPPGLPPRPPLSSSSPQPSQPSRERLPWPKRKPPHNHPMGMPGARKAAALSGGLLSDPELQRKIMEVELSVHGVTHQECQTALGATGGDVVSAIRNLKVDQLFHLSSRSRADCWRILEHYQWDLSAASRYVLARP
# [5] = biological target: T3, Activin receptor type-1 (Homo sapiens) (UniProt Q04771); assay: Inhibition of ALK2 (unknown origin) at 10 uM after 120 mins P33 radiolabeled kinase activity assay
# T3 sequence (whole entry): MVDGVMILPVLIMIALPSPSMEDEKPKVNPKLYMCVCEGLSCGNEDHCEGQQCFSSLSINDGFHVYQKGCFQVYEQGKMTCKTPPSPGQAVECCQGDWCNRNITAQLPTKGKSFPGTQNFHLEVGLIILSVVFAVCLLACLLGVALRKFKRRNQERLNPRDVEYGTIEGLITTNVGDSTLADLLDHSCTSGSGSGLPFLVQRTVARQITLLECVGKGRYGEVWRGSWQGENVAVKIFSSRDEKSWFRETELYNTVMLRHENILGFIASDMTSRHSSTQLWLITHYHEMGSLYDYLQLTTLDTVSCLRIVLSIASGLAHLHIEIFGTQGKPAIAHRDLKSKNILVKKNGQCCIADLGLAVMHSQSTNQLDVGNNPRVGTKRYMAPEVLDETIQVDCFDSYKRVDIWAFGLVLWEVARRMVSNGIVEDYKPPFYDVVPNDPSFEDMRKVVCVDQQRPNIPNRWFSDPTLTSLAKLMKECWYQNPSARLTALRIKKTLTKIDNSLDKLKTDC
# [6] = biological target: T4, TGF-beta receptor type-1 (Homo sapiens) (UniProt P36897); assay: Inhibition of ALK5 (unknown origin) at 10 uM after 120 mins P33 radiolabeled kinase activity assay
# T4 sequence (whole entry): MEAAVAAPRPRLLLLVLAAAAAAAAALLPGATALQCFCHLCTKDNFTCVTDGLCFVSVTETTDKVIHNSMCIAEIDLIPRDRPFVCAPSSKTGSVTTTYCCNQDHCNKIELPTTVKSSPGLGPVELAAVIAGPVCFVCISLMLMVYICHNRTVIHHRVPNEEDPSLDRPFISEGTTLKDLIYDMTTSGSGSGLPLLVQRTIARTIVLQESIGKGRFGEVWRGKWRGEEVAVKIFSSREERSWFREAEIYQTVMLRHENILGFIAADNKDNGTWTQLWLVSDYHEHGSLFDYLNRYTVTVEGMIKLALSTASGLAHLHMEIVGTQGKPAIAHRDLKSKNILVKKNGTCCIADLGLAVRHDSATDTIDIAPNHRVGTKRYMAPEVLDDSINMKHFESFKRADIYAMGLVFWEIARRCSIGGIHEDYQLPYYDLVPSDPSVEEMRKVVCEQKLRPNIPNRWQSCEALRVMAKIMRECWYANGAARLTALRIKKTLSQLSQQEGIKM
# [7] = biological target: Cell division cycle 7-related protein kinase (Homo sapiens) (UniProt O00311); assay: Inhibition of CDC7 (unknown origin) at 10 uM after 120 mins P33 radiolabeled kinase activity assay
# [8] = biological target: CDK3/Cyclin E (Homo sapiens) (UniProt P24864+Q00526); assay: Inhibition of CDK3/cyclin E (unknown origin) at 10 uM after 120 mins P33 radiolabeled kinase activity assay; format: protein-complex assay
# Chain of CDK3/Cyclin E (Homo sapiens) (P24864 whole entry, looked up): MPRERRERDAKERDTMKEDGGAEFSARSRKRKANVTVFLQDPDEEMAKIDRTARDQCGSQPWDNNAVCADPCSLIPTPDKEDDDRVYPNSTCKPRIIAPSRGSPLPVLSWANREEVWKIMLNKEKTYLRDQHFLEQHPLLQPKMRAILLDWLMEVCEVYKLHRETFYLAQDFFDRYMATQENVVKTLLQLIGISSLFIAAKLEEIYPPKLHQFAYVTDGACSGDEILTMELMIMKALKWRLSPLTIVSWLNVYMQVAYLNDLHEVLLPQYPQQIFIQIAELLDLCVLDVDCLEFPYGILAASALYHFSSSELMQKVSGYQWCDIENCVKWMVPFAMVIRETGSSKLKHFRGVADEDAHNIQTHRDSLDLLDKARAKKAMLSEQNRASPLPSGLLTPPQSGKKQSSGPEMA
# Chain of CDK3/Cyclin E (Homo sapiens) (Q00526 whole entry, looked up): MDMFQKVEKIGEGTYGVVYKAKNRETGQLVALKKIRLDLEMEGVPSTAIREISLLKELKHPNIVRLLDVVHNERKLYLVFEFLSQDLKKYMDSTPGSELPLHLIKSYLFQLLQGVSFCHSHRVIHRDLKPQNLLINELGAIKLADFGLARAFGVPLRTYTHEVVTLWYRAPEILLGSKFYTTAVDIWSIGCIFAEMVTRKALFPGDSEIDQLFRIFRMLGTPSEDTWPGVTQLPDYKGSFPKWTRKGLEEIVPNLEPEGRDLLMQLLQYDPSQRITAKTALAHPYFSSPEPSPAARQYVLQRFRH
# Chain of Ribosomal protein S6 kinase alpha-3 (Homo sapiens) (P51812 whole entry): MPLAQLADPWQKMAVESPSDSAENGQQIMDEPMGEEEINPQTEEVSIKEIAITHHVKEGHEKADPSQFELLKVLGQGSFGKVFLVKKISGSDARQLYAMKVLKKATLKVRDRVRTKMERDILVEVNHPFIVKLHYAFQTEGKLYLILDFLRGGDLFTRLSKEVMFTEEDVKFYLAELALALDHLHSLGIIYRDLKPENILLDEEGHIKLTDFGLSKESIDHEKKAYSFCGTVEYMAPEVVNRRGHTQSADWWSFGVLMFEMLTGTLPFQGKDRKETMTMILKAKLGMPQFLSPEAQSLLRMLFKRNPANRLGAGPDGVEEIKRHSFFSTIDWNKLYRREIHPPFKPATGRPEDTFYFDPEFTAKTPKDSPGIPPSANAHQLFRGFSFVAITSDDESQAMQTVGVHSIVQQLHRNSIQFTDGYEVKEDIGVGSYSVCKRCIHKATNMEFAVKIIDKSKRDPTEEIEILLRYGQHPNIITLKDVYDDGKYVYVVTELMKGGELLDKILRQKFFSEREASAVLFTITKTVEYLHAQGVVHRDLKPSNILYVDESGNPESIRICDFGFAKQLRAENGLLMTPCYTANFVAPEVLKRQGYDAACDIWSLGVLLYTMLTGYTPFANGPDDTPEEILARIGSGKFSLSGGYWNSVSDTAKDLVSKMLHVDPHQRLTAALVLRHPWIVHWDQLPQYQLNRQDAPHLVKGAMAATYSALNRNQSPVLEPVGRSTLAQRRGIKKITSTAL
# Chain of Macrophage colony-stimulating factor 1 receptor (Homo sapiens) (P07333 whole entry): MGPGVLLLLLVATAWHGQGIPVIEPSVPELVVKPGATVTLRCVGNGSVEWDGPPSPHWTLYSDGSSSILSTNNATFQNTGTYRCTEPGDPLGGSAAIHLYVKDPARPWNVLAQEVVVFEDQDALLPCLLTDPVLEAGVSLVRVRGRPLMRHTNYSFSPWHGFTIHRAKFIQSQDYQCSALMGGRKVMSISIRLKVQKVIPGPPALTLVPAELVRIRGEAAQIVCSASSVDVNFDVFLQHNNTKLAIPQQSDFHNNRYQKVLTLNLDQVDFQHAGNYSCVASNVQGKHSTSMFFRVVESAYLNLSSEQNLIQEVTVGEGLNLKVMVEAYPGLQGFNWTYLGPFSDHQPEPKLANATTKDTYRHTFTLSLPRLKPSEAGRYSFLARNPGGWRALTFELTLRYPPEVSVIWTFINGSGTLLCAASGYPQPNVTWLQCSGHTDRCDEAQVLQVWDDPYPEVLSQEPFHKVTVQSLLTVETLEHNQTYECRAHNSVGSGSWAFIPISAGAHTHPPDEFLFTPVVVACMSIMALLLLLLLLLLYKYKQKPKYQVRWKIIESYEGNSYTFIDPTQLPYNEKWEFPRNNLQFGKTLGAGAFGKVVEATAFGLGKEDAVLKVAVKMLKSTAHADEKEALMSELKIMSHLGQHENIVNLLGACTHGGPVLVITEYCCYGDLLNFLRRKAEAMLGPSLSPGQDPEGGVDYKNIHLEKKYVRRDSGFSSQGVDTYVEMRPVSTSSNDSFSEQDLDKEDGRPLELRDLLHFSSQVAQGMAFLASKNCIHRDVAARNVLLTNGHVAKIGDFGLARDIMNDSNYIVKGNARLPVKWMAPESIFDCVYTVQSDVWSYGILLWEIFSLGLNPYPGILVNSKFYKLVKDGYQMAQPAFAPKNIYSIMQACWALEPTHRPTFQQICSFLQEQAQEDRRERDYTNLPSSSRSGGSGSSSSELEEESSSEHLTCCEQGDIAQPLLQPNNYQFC
# Chain of Cell division cycle 7-related protein kinase (Homo sapiens) (O00311 whole entry, looked up): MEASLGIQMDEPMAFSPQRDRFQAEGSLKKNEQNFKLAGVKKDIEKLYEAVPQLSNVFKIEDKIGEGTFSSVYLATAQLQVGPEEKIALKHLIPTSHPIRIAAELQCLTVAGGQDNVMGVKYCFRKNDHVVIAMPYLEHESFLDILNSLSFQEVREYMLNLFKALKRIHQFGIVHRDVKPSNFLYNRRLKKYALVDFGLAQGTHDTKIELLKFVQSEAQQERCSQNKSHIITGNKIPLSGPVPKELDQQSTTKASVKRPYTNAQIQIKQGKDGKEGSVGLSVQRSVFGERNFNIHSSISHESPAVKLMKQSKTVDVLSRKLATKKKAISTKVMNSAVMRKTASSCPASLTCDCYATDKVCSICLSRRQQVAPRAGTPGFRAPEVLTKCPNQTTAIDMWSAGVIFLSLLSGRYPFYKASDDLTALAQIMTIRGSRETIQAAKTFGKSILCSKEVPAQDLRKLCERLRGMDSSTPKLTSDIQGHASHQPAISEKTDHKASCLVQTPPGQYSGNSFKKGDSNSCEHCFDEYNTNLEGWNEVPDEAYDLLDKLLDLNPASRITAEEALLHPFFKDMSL
inhibition [1] [%],inhibition [2] [%],inhibition [3] [%],inhibition [4] [%],inhibition [5] [%],inhibition [6] [%],inhibition [7] [%],inhibition [8] [%],SMILES
43.9,2,66.8,95.2,85.2,69.6,9.73,60,CS(=O)(=O)c1cccc(Nc2nccc(-c3sc(N4CCOCC4)nc3-c3cccc(NS(=O)(=O)c4c(F)cccc4F)c3)n2)c1
5.32,3.01,5.36,22.5,10.4,-7.32,6.05,0.29,COCCNC(=O)c1ccc2c(c1)nc(-c1cnc(-c3ccc(Cl)cc3)[nH]1)n2CCOC
98.2,93.4,46.3,89,-3.19,-8.74,5.38,49.5,CC(C)(C)c1cc(NC(=O)Nc2ccc(Oc3ccncc3)cc2)no1
